A short description of assay [1]: Inhibition of 20s constitutive proteasome beta1 caspase-like activity in human erythrocytes using […] as substrate preincubated for 10 mins followed by substrate addition and measured after 6 hrs by fluorescence assay.
Assay [2] can be described thus: Inhibition of 20s constitutive proteasome beta2 trypsin-like activity in human erythrocytes using Boc-Leu-Arg-Arg-MCA as substrate preincubated for 10 mins followed by substrate addition and measured after 6 hrs by fluorescence assay.

`C1=C\CCc2cc3c[n+](c2)CCCC/C=C\CC[C@@H]2CN(CCCC/1)CC[C@@H]32` came in with an IC50 in assay [1] of 4.7 µM.

Regarding `C1=C2CN3CCCC/C=C\CC[C@@H]4CN(CCCC/C=C\CC[C@H]1C3)CC[C@@H]24`, the IC50 in assay [2] amounted to 6.3 µM; in assay [1] it was 0.48 µM.

By IC50 is commonly meant the concentration that inhibits the measured activity by half.

These data come from BindingDB's records for doi:10.1016/j.bmcl.2018.11.028 (Kumamoto University, 2019).
